What is called IC50 is the concentration at which inhibition is half-maximal.

This assay addresses T1, full-length human PKCι (Homo sapiens, UniProt P41743).
T1 construct: Recombinant, full-length human PKCι expressed in Sf21 insect cells is also commercially available; purchased; host or cells: Sf21 insect cells
T1 sequence (P41743 1-596): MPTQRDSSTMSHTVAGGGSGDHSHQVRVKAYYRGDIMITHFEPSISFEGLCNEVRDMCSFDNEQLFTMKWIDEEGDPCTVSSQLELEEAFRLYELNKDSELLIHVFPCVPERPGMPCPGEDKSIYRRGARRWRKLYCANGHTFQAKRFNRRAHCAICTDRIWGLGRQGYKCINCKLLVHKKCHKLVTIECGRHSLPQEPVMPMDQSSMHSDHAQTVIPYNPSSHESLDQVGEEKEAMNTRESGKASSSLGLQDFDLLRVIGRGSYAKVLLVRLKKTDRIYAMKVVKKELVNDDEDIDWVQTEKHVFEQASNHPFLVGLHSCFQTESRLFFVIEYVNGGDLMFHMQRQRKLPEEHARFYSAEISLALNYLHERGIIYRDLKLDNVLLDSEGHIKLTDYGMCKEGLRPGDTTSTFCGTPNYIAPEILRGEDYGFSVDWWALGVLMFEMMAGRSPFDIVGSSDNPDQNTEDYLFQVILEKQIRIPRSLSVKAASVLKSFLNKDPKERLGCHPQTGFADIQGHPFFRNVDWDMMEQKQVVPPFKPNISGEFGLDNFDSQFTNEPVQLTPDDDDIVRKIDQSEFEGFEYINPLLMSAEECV
In words: PKCι IC50 IMAP assay, full-length PKCι at 150 μM ATP. It counts as biochemical. The settings on record: read-out: IC50 in IMAP assay against full length PKCi at 150 μM ATP. In short, it runs like this:
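Recombinant full-length human PKCι (Sf21-expressed, typically 15 pM) phosphorylated 100 nM 5FAM-labelled PKCε pseudosubstrate-derived peptide with 150 μM ATP (5× KM^APP) in 18 mM tris-HCl pH7.5, 9 mM MgCl2, EGTA, DTT, 4% DMSO. After 60 min at room temperature, IMAP binding reagent was added for 2 h and fluorescence polarisation read.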
On to `COc1cncc2nc(-c3ccnc(NC(=O)Cc4cccc(C(F)(F)F)c4)c3)nc(N3CCNCC3)c12` [Example 373, N-[4-(5-Methoxy-4-piperazin-1-yl-pyrido[3,4-d]pyrimidin-2-yl)-pyridin-2-yl]-2-(3-trifluoromethyl-phenyl)-acetamide], for which the IC50 is less than 0.1 µM.
With `COc1ccc(CC(=O)Nc2cc(-c3nc(N4CCNCC4)c4c(OC)cncc4n3)ccn2)cc1` [Example 374, 2-(4-Methoxy-phenyl)-N-[4-(5-methoxy-4-piperazin-1-yl-pyrido[3,4-d]pyrimidin-2-yl)-pyridin-2-yl]-acetamide] the figure was less than 0.1 µM; with `COc1cncc2nc(-c3ccnc(Nc4ccc(N5CCOCC5)nc4)c3)nc(N3CCNCC3)c12` [Example 375, [4-(5-Methoxy-4-piperazin-1-yl-pyrido[3,4-d]pyrimidin-2-yl)-pyridin-2-yl]-(6-morpholin-4-yl-pyridin-3-yl)-amine], less than 0.1 µM; with `c1cncc(Nc2cc(-c3nc(N[C@@H]4CCNC4)c4ccncc4n3)ccn2)c1` [Example 376, {2-[2-(Pyridin-3-ylamino)-pyridin-4-yl]-pyrido[3,4-d]pyrimidin-4-yl}-(R)-pyrrolidin-3-yl-amine], 0.1 to 1 µM.
The same measure for `COc1cncc2nc(-c3ccnc(Nc4cccnc4)c3)nc(N[C@@H]3CCNC3)c12` [Example 377, {5-Methoxy-2-[2-(pyridin-3-ylamino)-pyridin-4-yl]-pyrido[3,4-d]pyrimidin-4-yl}-(R)-pyrrolidin-3-yl-amine]: 0.1 to 1 µM; for `COc1cncc2nc(-c3ccnc(Nc4cccnc4)c3)nc(N3CCNCC3)c12` [Example 378, [4-(5-Methoxy-4-piperazin-1-yl-pyrido[3,4-d]pyrimidin-2-yl)-pyridin-2-yl]-pyridin-3-yl-amine]: less than 0.1 µM.
With `COc1cncc2nc(-c3ccnc(Nc4cc(C(N)=O)ccn4)c3)nc(N3CCNCC3)c12` [Example 379, 2-[4-(5-Methoxy-4-piperazin-1-yl-pyrido[3,4-d]pyrimidin-2-yl)-pyridin-2-ylamino]-isonicotinamide] the figure was less than 0.1 µM.
With `COc1cncc2nc(-c3ccnc(Nc4ccc(C(N)=O)cn4)c3)nc(N3CCNCC3)c12` [Example 380, 6-[4-(5-Methoxy-4-piperazin-1-yl-pyrido[3,4-d]pyrimidin-2-yl)-pyridin-2-ylamino]-nicotinamide], the IC50 is less than 0.1 µM.
The same measure for `COc1cc(Nc2cc(-c3nc(N4CCNCC4)c4c(OC)cncc4n3)ccn2)ccc1N1CCOCC1` [Example 382, (3-Methoxy-4-morpholin-4-yl-phenyl)-[4-(5-methoxy-4-piperazin-1-yl-pyrido[3,4-d]pyrimidin-2-yl)-pyridin-2-yl]-amine]: less than 0.1 µM; for `COc1cncc2nc(-c3ccnc(Nc4ccc(N5CCOCC5)cc4C)c3)nc(N3CCNCC3)c12` [Example 383, [4-(5-Methoxy-4-piperazin-1-yl-pyrido[3,4-d]pyrimidin-2-yl)-pyridin-2-yl]-(2-methyl-4-morpholin-4-yl-phenyl)-amine]: less than 0.1 µM.
As to `COc1cncc2nc(-c3ccnc(Nc4ccc(C#N)nc4)c3)nc(N3CCNCC3)c12` [Example 384], the IC50 was in the range of 0.1 to 1 µM.
With `COc1cncc2nc(-c3ccnc(Nc4cncnc4)c3)nc(N[C@@H]3CCNC3)c12` [Example 385, {5-Methoxy-2-[2-(pyrimidin-5-ylamino)-pyridin-4-yl]-pyrido[3,4-d]pyrimidin-4-yl}-(R)-pyrrolidin-3-yl-amine] the figure was 0.1 to 1 µM; with `COc1cncc2nc(-c3ccnc(Nc4cncnc4)c3)nc(N3CCNCC3)c12` [Example 386, [4-(5-Methoxy-4-piperazin-1-yl-pyrido[3,4-d]pyrimidin-2-yl)-pyridin-2-yl]-pyrimidin-5-yl-amine], 0.1 to 1 µM; with `COc1cncc2nc(-c3ccnc(Nc4ccccn4)c3)nc(N3CCNCC3)c12` [Example 387, [4-(5-Methoxy-4-piperazin-1-yl-pyrido[3,4-d]pyrimidin-2-yl)-pyridin-2-yl]-pyridin-2-yl-amine], less than 0.1 µM.

For the origin of these results see patent publication US9914730B2, “Azaquinazoline inhibitors of Atypical protein Kinase C” (Ignyta, Inc., priority 2012, dated 2018).
